Data taken from patent publication US10881642B2, “Autophagy enhancer and use thereof” (Industry-Academic Cooperation Foundation, Yonsei University, priority 2016, dated 2021).
“Also recorded” adds a separate entry of the source.

Key:
TFEB = TFEB nuclear translocation in TFEB-GFP HeLa cells; assay type: cell-based; conditions: 4 hrs
Protocol: FIG. 3A is the graph showing the percentage of nuclear translocated TFEB for which TFEB-GFP HeLa cells were treated with MSL compound for 4 hrs and then nuclei of the cells were stained with DAPI. FIG. 3B is the results of the experiments in which HeLa cells were incubated in the presence of MSL compound or vehicle control for 24 hrs and then the acidic vesicular organelles formed were stained with acridine orange. FIG. 3C is the results of the experiments in which TFEB-GFP HeLa cells were treated with MSL compound or vehicle control for 4 hrs and then the cells were immunoblotted with the antibodies indicated. FIG. 3D and FIG. 3E is the result of measuring the calcineurin activity in the lysates of Hepa1c1c7 cells treated with the compounds indicated. Error bars, S.D. **, P<0.01;***, P<0.001.
FIG. 10 is the result of the experiments using compound of formula 2 (hereinafter referred to as MSL-7) of the present disclosure as an autophagic enhancer. FIG. 10A is the result of immuneblot using the antibodies indicated using Hela cells treated with MSL or MSL-7. FIG. 10B is the result of measuring the viability of Hela cells treated with vehicle control or various concentration of MSL-7 (50-100 μM) for 48 hrs. FIG. 10C is the result of DAPI stained nuclei of TFEB-GFP HeLa cells which were treated with vehicle control or MSL-7 for 4 hrs. The graph indicates the percentage of TFEB translocated into the nuclei. Error bars, S.D. *, P<0.05; **, P<0.01; ***, P<0.001.
Screening of autophagy enhancer. […] Luciferase assay. […] Firefly luciferase was determined after mixing 5 μl of lysate with 25 μl of Luciferase Assay Reagent II. Renilla luciferase was then determined after further addition of 20 ul of Stop&Glo Reagent. […] Cytotoxicity was determined by the measurement of LDH release in cell culture media using the LDH kit (Roche), according to the protocol from the manufacturer. […] Imaging and image quantification. […] Formation of acidic vesicular organelles was quantitated by staining the cells with acridine orange (Invitrogen, 5 ug/ml, 10 min). […]

Hepa1c1c7 cells = assay: Lipid droplet clearance after PA and OA loading; assay type: cell-based

Structure (SMILES)	TFEB nuclear translocation (TFEB)	percentage of nuclei showing TFEB positivity (TFEB; compared to untreated cells)	lipid content in cells loaded with PA and OA (Hepa1c1c7 cells)	content of lipid droplets stained BODIPY (Hepa1c1c7 cells; PA and OA loaded, 16 h)
COc1oc(-c2ccccc2Cl)nc1S(=O)(=O)c1ccccc1 [MSL-7, 2-(2-chlorophenyl)-5-methoxy-4-(phenylsulfonyl) oxazole]	induced nuclear translocation of TFEB; also recorded: in a dose-dependent manner	–	–	–
CSc1oc(-c2ccccc2)nc1S(=O)(=O)c1ccc(F)cc1 [MSL]	translocated to the nuclei in the majority of MSL-treated HeLa cells	greatly increased	significantly reduced	significantly decreased
